Data as given in patent publication US20080131511A1, “Pharmaceutical Composition for Treatment of Tear and Salivary Fluid Drying” (Astellas Pharma, Inc., priority 2004, published 2008).

Legend:
Assay type in all cases: in vivo, mouse (male Balb/c)
[1] = tested on: salivary gland; assay: Salivary fluid secretion after subcutaneous bolus administration; details: mice; for Salivary fluid: 10 minutes after administration (Table 4)
Protocol: (§1) Male Balb/c mice were used in the test.
(§2) The compound A was dissolved in physiological saline to a concentration of 1, 3, 10, 30 or 100 mg/5 ml, and 5 ml/kg of the drug solution was administered under the dorsal skin. Secreted amounts of salivary and tear fluid were measured just before the administration of compound A and 10, 20, 30, 40 and 50 minutes after the administration. The sweating action was measured 10 minutes after the administration. Also, the growth acceleration action was measured 6 hours after the administration.
as §2, with “Pilocarpine was dissolved” for “The compound A was dissolved”, “concentration of 0.03, 0.1, 0.3, 1, 3 or 10 mg/5 ml, or cevimeline to a concentration of 0.3, 1, 3,” for “concentration of 1, 3,”, “administration of pilocarpine or cevimeline and 10,” for “administration of compound A and 10,”
(§3) The mouth of a mouse was wiped with a cotton ball whose weight had been measured in advance, and the incremental weight was used as the amount of salivary fluid. Also at the same time, a thread for tear fluid measurement (Zone Quick; Menicon) used on the Schirmer test was inserted into the lower eyelid conjunctival sac, and the length of colored part was measured and used as the amount of tear fluid. From the measurement results, area under the secreted amount-versus-time curve (AUC) was calculated.
(§4) All of the test results were expressed as fold increases of the reactions of the drug-administered group versus those of the vehicle-administered group, and comparison between the drug-administered groups and the vehicle-administered group was carried out using Dunnett's t-test. P<0.05 was considered significant. Results

[2] = tested on: lacrimal gland; assay: Tear fluid secretion after subcutaneous bolus administration; details: mice; for Tear fluid: 10 minutes after administration (Table 4)
Protocol: as §1, §2
as §2, with “Pilocarpine was dissolved” for “The compound A was dissolved”, “concentration of 0.03, 0.1, 0.3, 1, 3 or 10 mg/5 ml, or cevimeline to a concentration of 0.3, 1, 3,” for “concentration of 1, 3,”, “administration of pilocarpine or cevimeline and 10,” for “administration of compound A and 10,”
as §3, §4

[3] = tested on: sweat gland; assay: Sweating (number of activated sweat glands on footpad) after subcutaneous bolus administration; details: mice; for sweating: 10 minutes after administration (Table 4)
Protocol: as §1, §2
as §2, with “Pilocarpine was dissolved” for “The compound A was dissolved”, “concentration of 0.03, 0.1, 0.3, 1, 3 or 10 mg/5 ml, or cevimeline to a concentration of 0.3, 1, 3,” for “concentration of 1, 3,”, “administration of pilocarpine or cevimeline and 10,” for “administration of compound A and 10,”
The footpad of right hind paw of a mouse anesthetized with diethyl ether was wiped with absorbent cotton, and then 20 μl of each of 5 mg/ml iodine-ethanol solution and 50 mg/ml starch-mineral oil suspension was applied thereto. The number of black spots on footpad was counted and used as the number of activated sweat glands. In the case of the subcutaneous bolus administration test, the number of activated sweat glands 10 minutes after the administration of compound A was measured. In the case of the subcutaneous continuous administration, area under the number of activated sweat glands-versus-time curve (AUC) was calculated.
as §4

[4] = tested on: ornithine decarboxylase (ODC) activity of extra-orbital lacrimal gland; assay: Ornithine decarboxylase activity of extra-orbital lacrimal gland after subcutaneous bolus administration; details: mice, ODC activity 6 hours after administration (Table 4)
Protocol: Male Balb/c mice were used in the test. […] Also, the growth acceleration action was measured 6 hours after the administration. […] Also, the growth acceleration action was measured 6 hours after the administration. […] Thus, it can be easily analogized that the ODC activity becomes a useful index of cell growth and function of the exocrine gland. Accordingly, the ability of each drug to activate glandular tissue was evaluated by measuring ODC activity of parotid salivary gland and extra-orbital lacrimal gland. The amount of ^14CO2 formed from L-^14C-ornithine was used as the index of ODC activity. A mouse anesthetized with diethyl ether was sacrificed by bleeding, and left and right parotid salivary glands and extra-orbital lacrimal glands were isolated. After removing the attached connective tissue and fat, the isolated glandular tissues homogenized in 1.5 ml of a homogenate buffer (25 mM Tris-HCl buffer (pH 7.4) containing 0.1 mM ethylenediaminetetraacetic acid, 0.4 mM pyridoxal phosphate, 5 mM dithiothreitol and 0.1% Brij 35®) using a Potter type homogenizer and then centrifuged at 4° C., 15,000 g for 30 minutes, and the supernatant was used as the enzyme fraction. […] The ^14CO2 generated by the reaction was captured by 150 μl of 1 N NaOH soaked in a glass filter. Radioactivity of the ^14CO2 captured on the glass filter was detected using a liquid scintillation counter. The enzyme activity (pmol ^14CO2/mg protein/hour) was calculated from the measured results. All of the test results were expressed as fold increases of the reactions of the drug-administered group versus those of the vehicle-administered group, and comparison between the drug-administered groups and the vehicle-administered group was carried out using Dunnett's t-test. P<0.05 was considered significant. Results

[5] = tested on: salivary gland; assay: Salivary fluid secretion during subcutaneous continuous administration (osmotic pump); details: mice; for Salivary fluid: AUC of secreted amount
Protocol: as §1
The compound A was dissolved in physiological saline to a concentration of 0.625, 1.25, 2.5, 5.0, 10 or 20 mg/200 μl, and filled each pump (Alzet mini-osmotic pump 2001D, 8 μl/h, 1 day; DURECT Corporation) with about 200 μl portions It means, that is, each pump releases at a rate of 0.025, 0.05, 0.1, 0.2, 0.4 or 0.8 mg compound A/h, respectively. About 5 mm of dorsal epidermis of a mouse anesthetized with diethyl ether was incised, the osmotic pump already filled with the compound A was subcutaneously implanted, and then the skin was stitched. Secreted amounts of salivary and tear fluid and sweating were periodically measured from just before the implantation of pump until 32 hours after the administration. The ornithine decarboxylase activity was measured 10 hours after the implantation.
Pilocarpine was dissolved in physiological saline to a concentration of 0.039, 0.078, 0.16 or 0.31 mg/200 μl, or cevimeline to a concentration of 0.16, 0.31, 0.63 or 1.3 mg/200 μl, and filled the osmotic pump (Alzet mini-osmotic pump 2001 D, 8 μl/h, 1 day; DURECT Corporation) with about 200 μl portions. It means, that is, each pump releases at a rate of 0.00156, 0.00312, 0.0064 or 0.0124 mg/h (pilocarpine) or 0.0064, 0.0124, 0.0252 or 0.05 mg/h (cevimeline). About 5 mm of dorsal epidermis of a mouse anesthetized with diethyl ether was incised, the osmotic pump already filled with pilocarpine or cevimeline was subcutaneously implanted, and then the skin was stitched. Secreted amounts of salivary and tear fluid and sweating were periodically measured from just before the implantation of pump until 32 hours after the administration. The ornithine decarboxylase activity was measured 10 hours after the implantation.
as §3, §4

[6] = s.c. bolus, 10 minutes after administration

## CC1OC2(CS1)CN1CCC2CC1 (centres unmarked) [cevimeline]
[1]; s.c. bolus 0.3 mg/kg
  Salivary fluid: 1.2 ± 0.13 fold increase vs. the vehicle group
[1]; s.c. bolus 1 mg/kg
  Salivary fluid: 2.0 ± 0.22 fold increase vs. the vehicle group
[1]; s.c. bolus 3 mg/kg
  Salivary fluid: 2.1 ± 0.42 fold increase vs. the vehicle group
[1]; s.c. bolus 10 mg/kg
  Salivary fluid: 3.1 ± 0.50 fold increase vs. the vehicle group
[1]; [6]
  dose at which statistically significant acceleration of salivary fluid secretion was attained: 3 mg/kg
[1]; s.c. bolus, every dose
  time after administration at which secretion amount of salivary and tear fluid reached maximum: 10 min
[2]; s.c. bolus 0.3 mg/kg
  Tear fluid: 1.1 ± 0.14 fold increase vs. the vehicle group
[2]; s.c. bolus 1 mg/kg
  Tear fluid: 1.1 ± 0.14 fold increase vs. the vehicle group
[2]; s.c. bolus 3 mg/kg
  Tear fluid: 1.1 ± 0.16 fold increase vs. the vehicle group
[2]; s.c. bolus 10 mg/kg
  Tear fluid: 3.6 ± 0.88 fold increase vs. the vehicle group
[2]; [6]
  dose at which statistically significant acceleration of tear fluid secretion was attained: 10 mg/kg
[3]; s.c. bolus
  dose at which statistically significant sweating was found: 10 mg/kg
[3]; s.c. bolus 3 mg/kg
  sweating: 1.5 ± 0.29 fold increase vs. the vehicle group
[3]; s.c. bolus 10 mg/kg
  sweating: 2.5 ± 0.40 fold increase vs. the vehicle group
[3]; s.c. bolus 30 mg/kg
  sweating: 3.1 ± 0.57 fold increase vs. the vehicle group
[4]; s.c. bolus 10 mg/kg
  Glandular cell growth Lacrimal gland: 1.2 ± 0.90 fold increase vs. the vehicle group
[4]; s.c. bolus 30 mg/kg
  Glandular cell growth Lacrimal gland: 1.2 ± 0.52 fold increase vs. the vehicle group
[4]; s.c. bolus 100 mg/kg
  Glandular cell growth Lacrimal gland: 1.7 ± 0.79 fold increase vs. the vehicle group
[5]; s.c. continuous administration, cumulative quantity vs vehicle group
  dose showing statistically significant salivary fluid secretion acceleration: 0.63 mg
[5]; s.c. osmotic pump 0.16 mg (0.0064 mg/h)
  Salivary fluid: 0.98 ± 0.10 fold increase vs. the solvent group
[5]; s.c. osmotic pump 0.31 mg (0.0124 mg/h)
  Salivary fluid: 1.0 ± 0.12 fold increase vs. the solvent group
[5]; s.c. osmotic pump 0.63 mg (0.0252 mg/h)
  Salivary fluid: 1.5 ± 0.11 fold increase vs. the solvent group
[5]; s.c. osmotic pump 1.25 (0.05 mg/h)
  Salivary fluid: 1.7 ± 0.17 fold increase vs. the solvent group
